Assay results reported in patent publication US20250059188A1, “ARYLSULPHONAMIDE COMPOUNDS” (Anaxis Pharma Pty Ltd, priority 2021, published 2025).

Experiments:
[1] = target: human MLKL (full length) (Homo sapiens (Human), UniProt Q8NB16); assay: KINOMEscan binding assay, human MLKL (full length); conditions: equilibrium dissociation constant
Method in brief: (§1)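 Kd values come from dose-response fits to the Hill equation (Hill slope −1, Levenberg–Marquardt least squares). Compound competed with bead-bound ligand for tagged kinase, and remaining kinase was measured by qPCR after elution. Dilution series: 11 points, 3-fold, 1% DMSO final, top 30,000 nM in most runs.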

[2] = target: human RIPK1 (Homo sapiens (Human), UniProt Q13546); assay: KINOMEscan binding assay, human RIPK1; conditions: equilibrium dissociation constant
Sequence of human RIPK1 (Q13546 whole entry): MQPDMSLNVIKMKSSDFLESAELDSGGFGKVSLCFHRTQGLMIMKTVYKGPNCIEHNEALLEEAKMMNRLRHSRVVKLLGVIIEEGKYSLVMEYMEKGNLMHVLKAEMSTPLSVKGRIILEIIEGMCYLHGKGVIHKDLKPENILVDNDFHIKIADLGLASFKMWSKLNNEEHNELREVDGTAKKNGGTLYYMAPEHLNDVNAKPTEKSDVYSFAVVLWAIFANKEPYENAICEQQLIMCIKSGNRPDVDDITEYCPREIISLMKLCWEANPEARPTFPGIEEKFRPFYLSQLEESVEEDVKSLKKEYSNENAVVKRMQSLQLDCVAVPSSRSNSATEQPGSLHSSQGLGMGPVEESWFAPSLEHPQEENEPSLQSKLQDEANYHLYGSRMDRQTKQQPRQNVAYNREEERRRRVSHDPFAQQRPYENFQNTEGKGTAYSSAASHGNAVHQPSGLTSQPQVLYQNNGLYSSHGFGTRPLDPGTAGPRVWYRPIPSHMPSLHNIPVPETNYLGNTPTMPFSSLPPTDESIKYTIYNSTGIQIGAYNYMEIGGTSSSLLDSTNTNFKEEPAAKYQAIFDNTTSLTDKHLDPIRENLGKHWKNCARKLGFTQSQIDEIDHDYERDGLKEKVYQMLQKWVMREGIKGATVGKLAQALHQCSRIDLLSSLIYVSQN
Method in brief: as §1

[3] = target: human RIPK3 (Homo sapiens (Human), UniProt Q9Y572); assay: KINOMEscan binding assay, human RIPK3; conditions: equilibrium dissociation constant
Sequence of human RIPK3 (Q9Y572 whole entry): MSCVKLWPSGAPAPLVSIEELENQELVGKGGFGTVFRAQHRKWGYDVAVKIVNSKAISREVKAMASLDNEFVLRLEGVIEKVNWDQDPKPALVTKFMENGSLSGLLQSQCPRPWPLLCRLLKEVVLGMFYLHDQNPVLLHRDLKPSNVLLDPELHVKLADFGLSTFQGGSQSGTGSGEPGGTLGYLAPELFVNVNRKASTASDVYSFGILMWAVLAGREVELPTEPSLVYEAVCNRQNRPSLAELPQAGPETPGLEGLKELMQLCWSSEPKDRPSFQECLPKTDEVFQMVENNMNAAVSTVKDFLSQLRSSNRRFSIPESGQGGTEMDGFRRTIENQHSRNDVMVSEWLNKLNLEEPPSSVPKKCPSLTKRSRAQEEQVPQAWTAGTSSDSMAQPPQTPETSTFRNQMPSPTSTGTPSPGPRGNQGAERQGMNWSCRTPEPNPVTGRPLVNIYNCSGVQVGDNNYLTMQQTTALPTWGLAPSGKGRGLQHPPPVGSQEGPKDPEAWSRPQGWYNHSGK
Method in brief: as §1

[4] = system: U937 human histiocytic leukemia cell line; assay: Inhibition of TSQ induced necroptosis in U937 cells (CellTitre-Glo); conditions: Homo sapiens, U-937, TSQ cocktail (TNF, Smac mimetic, Q-VD-OPh), 48 hours, read-out: Inhibition of TSQ-induced necroptosis (IC50 cell-based assay)
Method in brief: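 U937 cells (20000/well) treated with compound (10-point, 1:3 from 36 μM, 0.3% DMSO) plus TSQ cocktail (hTNF-Fc 100 ng/ml, Smac mimetic 500 nM, Q-VD-OPh 10 μM), 48 h at 37 °C. Viability by CellTiter-Glo luminescence; IC50 from 4-parameter logistic fit. Counter screen: same cells without TSQ.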

[5] = system: U937 cells; assay: Counter screen: U937 cell viability without TSQ cocktail (off-target effect); set-up: species or system human; conditions: Homo sapiens, U-937, compound without TSQ cocktail, read-out: Off-target effect (IC50 cell-based assay)
Method in brief: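 U937 cells (20,000/well) exposed to compound (10-point 1:3 titration from 36 μM, 0.3% DMSO) without TSQ cocktail for 48 h at 37 °C/5% CO2. Viability read as ATP by CellTiter-Glo luminescence; IC50 from 4-parameter logistic fit.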

Sequence of human MLKL (full length) (Q8NB16 whole entry): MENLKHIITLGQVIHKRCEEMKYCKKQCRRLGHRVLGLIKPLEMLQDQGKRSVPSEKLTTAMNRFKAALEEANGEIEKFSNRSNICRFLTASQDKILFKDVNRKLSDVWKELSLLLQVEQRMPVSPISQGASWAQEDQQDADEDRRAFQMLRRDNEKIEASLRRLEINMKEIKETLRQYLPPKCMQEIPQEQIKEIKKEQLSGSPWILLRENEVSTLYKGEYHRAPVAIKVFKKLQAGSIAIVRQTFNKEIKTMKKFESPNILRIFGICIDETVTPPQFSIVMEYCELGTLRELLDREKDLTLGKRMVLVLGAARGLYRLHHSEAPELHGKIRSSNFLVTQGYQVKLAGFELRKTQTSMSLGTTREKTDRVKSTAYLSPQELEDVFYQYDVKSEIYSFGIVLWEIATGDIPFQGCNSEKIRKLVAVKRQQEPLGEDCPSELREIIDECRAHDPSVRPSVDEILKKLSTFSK

SMILES | Kd [1] [µM] | Kd [2] [µM] | Kd [3] [µM] | IC50 [4] [µM] | IC50 [5] [µM]
C[C@H](Oc1cc(-c2nn(C)c3c(-c4ccc(C(F)(F)F)nc4)cnc(N)c23)ccc1NS(=O)(=O)C(F)F)c1ccc(F)cc1 [Compound 117, (S)-N-(4-(4-amino-1-methyl-7-(6-(trifluoromethyl)pyridin-3-yl)-1H-pyrazolo[4,3-c]pyridin-3-yl)-2-(1-(4-fluorophenyl)ethoxy)phenyl)-1,1-difluoromethanesulfonamide] | 0.001 to 0.1 | > 10 | > 10 | 0.01 to 1 | > 10
C[C@H](Oc1cc(-c2nn(C)c3c(-c4cnn(C5CCOCC5)c4)cnc(N)c23)ccc1NS(C)(=O)=O)c1ccc(F)cc1 [Compound 119, (S)-N-(4-(4-amino-1-methyl-7-(1-(tetrahydro-2H-pyran-4-yl)-1H-pyrazol-4-yl)-1H-pyrazolo[4,3-c]pyridin-3-yl)-2-(1-(4-fluorophenyl)ethoxy)phenyl)methanesulfonamide] | 0.001 to 0.1 | > 10 | > 10 | 0.01 to 1 | > 10
C[C@H](Oc1cc(-c2nn(C)c3c(-c4cnn(C(F)F)c4)cnc(N)c23)ccc1NS(=O)(=O)C(F)F)c1ccc(F)cc1 [Compound 123, (S)-N-(4-(4-amino-7-(1-(difluoromethyl)-1H-pyrazol-4-yl)-1-methyl-1H-pyrazolo[4,3-c]pyridin-3-yl)-2-(1-(4-fluorophenyl)ethoxy)phenyl)-1,1-difluoromethanesulfonamide] | < 0.001 | > 10 | > 10 | < 0.01 | > 10
C[C@H](Oc1cc(-c2nn(C)c3c(-c4ccn(C)c4)cnc(N)c23)ccc1NS(=O)(=O)C(F)F)c1ccc(F)cc1 [Compound 126, (S)-N-(4-(4-amino-1-methyl-7-(1-methyl-1H-pyrrol-3-yl)-1H-pyrazolo[4,3-c]pyridin-3-yl)-2-(1-(4-fluorophenyl)ethoxy)phenyl)-1,1-difluoromethanesulfonamide] | 0.001 to 0.1 | > 10 | > 10 | 0.01 to 1 | > 10
C[C@H](Oc1cc(-c2nn(C)c3c(C#CC4CCN(CC(F)(F)F)CC4)cnc(N)c23)ccc1NS(=O)(=O)C(F)F)c1ccc(F)cc1 [Compound 128, (S)-N-(4-(4-amino-1-methyl-7-((1-(2,2,2-trifluoroethyl)piperidin-4-yl)ethynyl)-1H-pyrazolo[4,3-c]pyridin-3-yl)-2-(1-(4-fluorophenyl)ethoxy)phenyl)-1,1-difluoromethanesulfonamide] | 0.001 to 0.1 | > 10 | > 10 | 0.01 to 1 | > 10
C[C@H](Oc1cc(-c2nn(C)c3c(C#N)cnc(N)c23)ccc1NS(=O)(=O)C(F)F)c1ccc(F)cc1 [Compound 133, N-(4-{4-amino-7-cyano-1-methyl-1H-pyrazolo[4,3-c]pyridin-3-yl}-2-[(1S)-1-(4-fluorophenyl)ethoxy]phenyl)-1,1-difluoromethanesulfonamide] | < 0.001 | > 10 | > 10 | 0.01 to 1 | > 10
C[C@H](Oc1cc(-c2nn(C)c3c(-c4cnn(C(F)(F)F)c4)cnc(N)c23)ccc1NS(=O)(=O)C(F)F)c1ccc(F)cc1 [Compound 134, (S)-N-(4-(4-amino-1-methyl-7-(1-(trifluoromethyl)-1H-pyrazol-4-yl)-1H-pyrazolo[4,3-c]pyridin-3-yl)-2-(1-(4-fluorophenyl)ethoxy)phenyl)-1,1-difluoromethanesulfonamide] | 0.001 to 0.1 | > 10 | > 10 | 0.01 to 1 | > 10
Cn1nc(-c2ccc(NS(=O)(=O)C(F)F)cc2OCc2cccc(F)c2)c2c(N)ncc(-c3cnn(C4CCOCC4)c3)c21 [Compound 135, N-(4-(4-amino-1-methyl-7-(1-(tetrahydro-2H-pyran-4-yl)-1H-pyrazol-4-yl)-1H-pyrazolo[4,3-c]pyridin-3-yl)-3-((3-fluorobenzyl)oxy)phenyl)-1,1-difluoromethanesulfonamide] | < 0.001 | > 10 | > 10 | 0.01 to 1 | > 10
CNc1ncc(-n2cc(-c3cnc(N)c4c(-c5ccc(NS(=O)(=O)C(F)F)c(O[C@@H](C)c6ccc(F)cc6)c5)nn(C)c34)cn2)cn1 [Compound 138, (S)-N-(4-(4-amino-1-methyl-7-(1-(2-(methylamino)pyrimidin-5-yl)-1H-pyrazol-4-yl)-1H-pyrazolo[4,3-c]pyridin-3-yl)-2-(1-(4-fluorophenyl)ethoxy)phenyl)-1,1-difluoromethanesulfonamide] | 0.001 to 0.1 | > 10 | > 10 | 0.01 to 1 | > 10
Cn1nc(-c2ccc(NS(=O)(=O)C(F)F)c(OC3(c4ccc(F)cc4)CC3)c2)c2c(N)ncc(-c3cnn(C4CCOCC4)c3)c21 [Compound 140, N-(4-(4-amino-1-methyl-7-(1-(tetrahydro-2H-pyran-4-yl)-1H-pyrazol-4-yl)-1H-pyrazolo[4,3-c]pyridin-3-yl)-2-(1-(4-fluorophenyl)cyclopropoxy)phenyl)-1,1-difluoromethanesulfonamide] | 0.001 to 0.1 | > 10 | > 10 | 0.01 to 1 | > 10
C[C@H](Oc1cc(-c2nn(C)c3c(N4CCOCC4)cnc(N)c23)ccc1NS(=O)(=O)C(F)F)c1ccc(F)cc1 [Compound 141, N-{4-[4-amino-1-methyl-7-(morpholin-4-yl)-1H-pyrazolo[4,3-c]pyridin-3-yl]-2-[(1S)-1-(4-fluorophenyl)ethoxy]phenyl}-1,1-difluoromethanesulfonamide] | 0.001 to 0.1 | > 10 | > 10 | 0.01 to 1 | > 10
Cc1nn(C2CCN(C)C(C)(C)C2)cc1-c1cnc(N)c2c(-c3ccc(NS(=O)(=O)C(F)F)c(O[C@@H](C)c4ccc(F)cc4)c3)nn(C)c12 (stereo partly drawn) [Compound 156, N-(4-(4-amino-1-methyl-7-(3-methyl-1-(1,2,2-trimethylpiperidin-4-yl)-1H-pyrazol-4-yl)-1H-pyrazolo[4,3-c]pyridin-3-yl)-2-((S)-1-(4-fluorophenyl)ethoxy)phenyl)-1,1-difluoromethanesulfonamide] | 0.001 to 0.1 | > 10 | > 10 | 0.01 to 1 | > 10
C[C@H](Oc1cc(-c2nn(C)c3c(-c4ccc5[nH]c(=O)n(C)c5c4)cnc(N)c23)ccc1NS(=O)(=O)C(F)F)c1ccc(F)cc1 [Compound 160, (S)-N-(4-(4-amino-1-methyl-7-(3-methyl-2-oxo-2,3-dihydro-1H-benzo[d]imidazol-5-yl)-1H-pyrazolo[4,3-c]pyridin-3-yl)-2-(1-(4-fluorophenyl)ethoxy)phenyl)-1,1-difluoromethanesulfonamide] | < 0.001 | > 10 | > 10 | 0.01 to 1 | > 10
C[C@H](Oc1cc(-c2nn(C)c3c(-c4ccc5c(c4)n(C)c(=O)n5C)cnc(N)c23)ccc1NS(=O)(=O)C(F)F)c1ccc(F)cc1 [Compound 161, (S)-N-(4-(4-amino-7-(1,3-dimethyl-2-oxo-2,3-dihydro-1H-benzo[d]imidazol-5-yl)-1-methyl-1H-pyrazolo[4,3-c]pyridin-3-yl)-2-(1-(4-fluorophenyl)ethoxy)phenyl)-1,1-difluoromethanesulfonamide] | < 0.001 | > 10 | > 10 | 1 to 10 | > 10
C[C@H](Oc1cc(-c2nn(C)c3c(-c4ccc5c(c4)CC(=O)N5C)cnc(N)c23)ccc1NS(=O)(=O)C(F)F)c1ccc(F)cc1 [Compound 165, (S)-N-(4-(4-amino-1-methyl-7-(1-methyl-2-oxoindolin-5-yl)-1H-pyrazolo[4,3-c]pyridin-3-yl)-2-(1-(4-fluorophenyl)ethoxy)phenyl)-1,1-difluoromethanesulfonamide] | 0.001 to 0.1 | > 10 | > 10 | 0.01 to 1 | > 10
